# From publication PMC5267425, “Identification of small molecule modulators of HIV-1 Tat and Rev protein accumulation” (Retrovirology, 2017)
# System: cellular gene expression in HeLa rtTA HIV∆Mls cells
compound,measurement,value
"Cc1cc(NCc2cccnc2)n2ncc(-c3ccc(Cl)cc3)c2n1 [Compound 791, 3-(4-chlorophenyl)-5-methyl-N-(3-pyridinylmethyl)pyrazolo[1,5-a]pyrimidin-7-amine]",SETMAR expression fold change,0.745
same,SFPQ expression fold change,0.604
same,SFRS13A expression fold change,1.164
same,SH2D4A expression fold change,1.164
same,SH3BGR Mean fold change,1.680
same,SHPK expression fold change,0.869
same,SIAH1 Mean fold change,1.613
same,SIAH2 Mean fold change,1.494
same,SIKE1 expression fold change,1.279
same,SKA2 expression fold change,0.700
same,SLC1A5 Mean fold change,2.013
same,SLC6A9 Mean fold change,1.846
same,SLC6A15 Mean fold change,1.859
same,SLC9A3 Mean fold change,1.796
same,SLC10A3 expression fold change,0.873
same,SLC16A1 expression fold change,1.148
same,SLC22A15 Mean fold change,2.322
same,SLC25A23 expression fold change,0.855
same,SLC26A11 expression fold change,1.295
same,SLC29A1 expression fold change,0.814
same,SLC35B3 expression fold change,1.282
same,SLC38A6 expression fold change,1.215
same,SLC39A6 expression fold change,1.389
same,SMARCA1 expression fold change,0.805
same,SMARCA5 expression fold change,0.811
same,SMARCC1 expression fold change,0.845
same,SMC2 expression fold change,0.736
same,SMC4 expression fold change,0.769
same,SMEK2 expression fold change,1.332
same,SMS expression fold change,0.802
same,SMTN expression fold change,0.528
same,SNAPC5 Mean fold change,1.498
same,SNX7 expression fold change,0.747
same,SNX10 Mean fold change,2.399
same,SOD1 expression fold change,0.780
same,SOX12 expression fold change,0.979
same,SPCS1 expression fold change,1.045
same,SPR expression fold change,0.726
same,SPRED2 Mean fold change,2.080
same,SPRYD4 expression fold change,0.835
same,SPTAN1 expression fold change,0.613
same,SQSTM1 expression fold change,1.336
same,SRPK1 expression fold change,1.142
same,SS18L1 expression fold change,1.184
same,SSR4 expression fold change,1.121
same,ST5 expression fold change,0.715
same,ST6GALNAC4 expression fold change,1.270
same,ST7L expression fold change,1.363
same,STAG3L4 Mean fold change,1.432
same,STAMBP expression fold change,1.360
same,STARD4 expression fold change,0.603
same,STK24 expression fold change,1.344
same,STK36 expression fold change,1.268
same,STK38 expression fold change,0.829
same,STK40 expression fold change,1.375
same,STMN1 expression fold change,0.737
same,STX4 expression fold change,1.358
same,SUN1 expression fold change,0.880
same,SUPT3H expression fold change,1.089
same,SUPT16H expression fold change,1.113
same,SWAP70 expression fold change,0.801
same,SYNPO expression fold change,0.615
same,TAB1 expression fold change,1.071
same,TADA2B expression fold change,1.205
same,TAF1C expression fold change,1.085
same,TAF3 expression fold change,1.132
same,TAF4B expression fold change,0.875
same,TAGLN2 expression fold change,0.573
same,TATDN1 Mean fold change,1.544
same,TBC1D23 expression fold change,0.831
same,TBC1D25 expression fold change,0.892
same,TBCCD1 expression fold change,1.231
same,TBCD expression fold change,0.769
same,TBL1X expression fold change,1.190
same,TBX1 expression fold change,0.707
same,TCEA1 Mean fold change,2.377
same,TCTA expression fold change,0.691
same,TEX2 expression fold change,1.153
same,TEX261 expression fold change,0.826
same,TFAP2A expression fold change,0.742
same,TGDS expression fold change,1.239
same,TGFA Mean fold change,2.015
same,THAP2 Mean fold change,1.505
same,TIGD2 expression fold change,1.326
same,TIGD6 Mean fold change,1.617
same,TIMELESS expression fold change,1.079
same,TIMM17B expression fold change,1.193
same,TIMP4 Mean fold change,2.098
same,TIPRL expression fold change,1.158
same,TLE3 expression fold change,0.824
same,TM4SF1 expression fold change,0.658
same,TM4SF19 Mean fold change,2.453
same,TM9SF4 expression fold change,1.144
same,TMED9 expression fold change,0.713
same,TMEM33 expression fold change,1.367
same,TMEM51 expression fold change,1.103
same,TMEM55A Mean fold change,1.593
same,TMEM68 expression fold change,1.389
same,TMEM69 expression fold change,0.879
same,TMEM120B expression fold change,1.358
same,TMEM126B expression fold change,1.318
same,TMEM128 Mean fold change,1.475
same,TMEM133 expression fold change,0.678
same,TMEM134 expression fold change,1.333
same,TMEM136 Mean fold change,1.653
same,TMEM138 expression fold change,1.174
same,TMEM167B expression fold change,1.381
same,TMEM184B expression fold change,0.777
same,TMSB10 expression fold change,0.763
same,TNKS2 expression fold change,1.115
same,TNS3 expression fold change,0.625
same,TOM1 expression fold change,1.142
same,TOP1 Mean fold change,1.433
same,TOP2B expression fold change,0.838
same,TOR3A Mean fold change,2.169
same,TPD52 expression fold change,0.814
same,TPK1 Mean fold change,1.463
same,TRAPPC6B Mean fold change,1.516
same,TRIB3 Mean fold change,9.286
same,TRIM5 expression fold change,0.541
same,TRIM8 expression fold change,1.137
same,TRIM11 expression fold change,1.129
same,TRIM38 expression fold change,1.268
same,TRIP12 expression fold change,0.897
same,TRIP13 expression fold change,0.826
same,TRMT2A expression fold change,1.232
same,TRNP1 expression fold change,0.822
same,TRNT1 expression fold change,1.353
same,TRUB2 expression fold change,0.915
same,TSEN2 Mean fold change,1.417
same,TSEN15 Mean fold change,1.483
same,TSPAN14 expression fold change,1.164
same,TSR2 expression fold change,0.870
same,TSSK6 Mean fold change,1.615
same,TTC9C expression fold change,1.292
same,TTC13 Mean fold change,1.539
same,TTC17 Mean fold change,1.465
same,TTLL4 expression fold change,1.144
same,TTRAP Mean fold change,1.772
same,TUBA1C expression fold change,0.608
same,TUBGCP4 expression fold change,1.159
same,TXNDC11 expression fold change,0.839
same,TXNRD2 expression fold change,0.682
same,UBAP2L expression fold change,0.784
same,UBAP2 expression fold change,0.809
same,UBE2CBP expression fold change,1.206
same,UBE2E3 expression fold change,0.823
same,UBE2F expression fold change,1.199
same,UBE3A expression fold change,1.133
same,UBL5 expression fold change,0.749
same,UBXN2B Mean fold change,1.412
same,UNC13D expression fold change,0.656
same,UPF1 expression fold change,0.745
same,UPP1 Mean fold change,1.696
same,USP3 expression fold change,1.367
same,USP13 expression fold change,0.835
same,USP43 expression fold change,0.526
same,USP45 expression fold change,1.299
same,VHL expression fold change,1.356
same,VPS4B expression fold change,0.923
same,VPS45 expression fold change,1.169
same,WARS Mean fold change,4.515
same,WBSCR16 expression fold change,0.745
same,WDFY1 expression fold change,1.061
same,WDR67 Mean fold change,1.463
same,WDR73 expression fold change,1.398
same,WDR85 Mean fold change,1.430
same,WDR86 Mean fold change,1.956
same,WI2-3658N16.1 Mean fold change,2.029
same,XBP1 Mean fold change,1.642
same,XPNPEP3 Mean fold change,1.531
same,XPO5 expression fold change,1.247
same,XPO7 expression fold change,0.941
same,XPOT Mean fold change,2.053
same,XRCC6BP1 expression fold change,1.139
same,YAP1 expression fold change,1.104
same,YARS Mean fold change,1.734
same,ZBED1 expression fold change,0.668
same,ZBED5 expression fold change,1.276
same,ZBTB8A expression fold change,1.143
same,ZBTB26 expression fold change,1.398
same,ZBTB34 expression fold change,1.406
same,ZC3H4 expression fold change,0.785
same,ZC3H7A expression fold change,0.841
same,ZC3H8 Mean fold change,1.710
same,ZC3H14 expression fold change,1.133
same,ZCCHC4 expression fold change,1.276
same,ZCCHC8 expression fold change,1.219
same,ZCCHC9 expression fold change,1.340
same,ZFAND1 Mean fold change,1.472
same,ZFP30 expression fold change,1.219
same,ZFP36L2 expression fold change,1.274
same,ZFP64 expression fold change,1.227
same,ZFP161 Mean fold change,1.683
same,ZFYVE20 expression fold change,1.201
same,ZFYVE27 expression fold change,1.318
same,ZHX2 Mean fold change,1.409
same,ZIC2 Mean fold change,1.423
same,ZNF12 expression fold change,1.245
same,ZNF25 Mean fold change,1.879
same,ZNF28 expression fold change,1.179
same,ZNF91 expression fold change,1.253
same,ZNF133 expression fold change,1.224
same,ZNF184 expression fold change,1.308
same,ZNF193 expression fold change,1.323
same,ZNF195 expression fold change,1.289
same,ZNF217 Mean fold change,1.446
same,ZNF239 Mean fold change,1.543
same,ZNF252 Mean fold change,1.609
same,ZNF295 Mean fold change,1.482
same,ZNF319 expression fold change,1.386
same,ZNF320 expression fold change,1.362
same,ZNF354A expression fold change,1.350
same,ZNF354B Mean fold change,1.466
same,ZNF410 Mean fold change,1.435
same,ZNF419 Mean fold change,1.789
same,ZNF433 Mean fold change,1.676
same,ZNF445 expression fold change,1.297
same,ZNF493 Mean fold change,1.482
same,ZNF500 expression fold change,1.175
same,ZNF547 expression fold change,1.209
same,ZNF554 expression fold change,1.212
same,ZNF558 Mean fold change,1.502
same,ZNF566 expression fold change,1.349
same,ZNF567 expression fold change,1.133
same,ZNF592 expression fold change,1.148
same,ZNF619 expression fold change,1.402
same,ZNF664 expression fold change,1.294
same,ZNF669 expression fold change,1.198
same,ZNF700 expression fold change,1.242
same,ZNF706 expression fold change,1.373
same,ZNF746 expression fold change,1.115
same,ZNF747 expression fold change,1.143
same,ZNF764 expression fold change,1.241
same,ZNF770 Mean fold change,1.508
same,ZNF780A expression fold change,1.192
same,ZNF780B expression fold change,1.397
same,ZNF800 expression fold change,1.234
same,ZRSR2 expression fold change,1.249
same,ZSCAN12 Mean fold change,1.516
same,ZSCAN30 Mean fold change,1.472
same,ZSWIM7 expression fold change,1.339
same,fold change in expression of gene APBB1,0.456
same,fold change in expression of gene C19orf21,0.393
same,fold change in expression of gene CACNG4,0.431
same,fold change in expression of gene CAV1,0.418
same,fold change in expression of gene CDKN2AIP,0.467
same,fold change in expression of gene CITED2,0.434
same,fold change in expression of gene COL9A3,0.376
same,fold change in expression of gene CRISPLD2,0.367
same,fold change in expression of gene CSDC2,0.362
same,fold change in expression of gene CTGF,0.371
same,fold change in expression of gene CYR61,0.369
